Source: ChEMBL document CHEMBL1201862, “PubChem BioAssay data set” (2004)
Activity calls are given as the source filed them.

Key:
[1] = molecular target: Luciferin 4-monooxygenase (Photinus pyralis, UniProt P08659); assay: Counter Screen for Luciferase-based Assay Positives. [Related pubchem assays: 620, 618, 411 ]
HT-1080 = assay: cytotoxicity in HT1080 fibrosarcoma cells, cell-based, fluorescence readout (AID 620); format: functional; conditions: Homo sapiens
Galanin receptor type 2 = Galanin receptor type 2 (Homo sapiens, UniProt O43603); assay: Dose Response cell-based high-throughput screening assay to identify antagonists of galanin receptor 2 (GALR2). [Related pubchem assays: 828, 866 ]; format: functional
Sequence of Galanin receptor type 2 (O43603 whole entry): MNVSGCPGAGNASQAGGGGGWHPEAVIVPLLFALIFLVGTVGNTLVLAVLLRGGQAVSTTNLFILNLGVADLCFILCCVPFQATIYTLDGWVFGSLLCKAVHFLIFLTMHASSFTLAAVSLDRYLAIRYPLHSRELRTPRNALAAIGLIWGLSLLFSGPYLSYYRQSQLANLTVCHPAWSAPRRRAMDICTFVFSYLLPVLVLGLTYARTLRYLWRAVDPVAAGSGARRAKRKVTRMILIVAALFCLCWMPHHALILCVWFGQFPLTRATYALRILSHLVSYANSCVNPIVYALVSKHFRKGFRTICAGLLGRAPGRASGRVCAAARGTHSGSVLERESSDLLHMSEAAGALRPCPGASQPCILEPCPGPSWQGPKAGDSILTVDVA

[2] = cytotoxicity in HEK-293T cells, dose response, cytotoxicity control for BCR NF-kB inhibitor project, luminescence, B-cell screen hits (AID 489021); format: functional, cell-based;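 also: HEK-293T cells carrying an NF-kB luciferase reporter; cells exposed to compound for about 14 hours before viability readout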
[3] = molecular target: T1, COUP transcription factor 2 (Homo sapiens, UniProt P24468); assay: Luminescence-based cell-based high throughput dose response assay to identify inhibitors of COUP-TFII (NR2F2).; format: functional;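 also: HEK293 cells transiently cotransfected with COUP-TFII expression vector and reporter; luciferase reporter luminescence driven by COUP-TFII from the pX2-168 reporter plasmid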
T1 sequence (P24468 whole entry): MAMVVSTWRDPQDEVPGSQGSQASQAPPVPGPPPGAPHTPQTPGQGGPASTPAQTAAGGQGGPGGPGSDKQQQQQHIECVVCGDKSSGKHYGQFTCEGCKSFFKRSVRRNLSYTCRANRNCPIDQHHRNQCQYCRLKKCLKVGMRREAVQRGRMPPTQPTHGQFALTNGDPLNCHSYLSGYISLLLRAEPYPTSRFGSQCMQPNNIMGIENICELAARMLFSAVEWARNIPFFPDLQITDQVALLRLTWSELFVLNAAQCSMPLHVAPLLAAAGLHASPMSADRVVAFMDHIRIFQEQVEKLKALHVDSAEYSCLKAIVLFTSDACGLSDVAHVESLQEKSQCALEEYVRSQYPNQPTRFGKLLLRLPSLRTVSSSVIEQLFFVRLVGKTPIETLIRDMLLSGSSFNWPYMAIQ

[4] = M. tuberculosis H37Rv growth inhibitors, H37Rv strain (AID 1626); format: functional
SUMO-activating enzyme [5] = molecular target: T2, SUMO-activating enzyme (Homo sapiens, UniProt Q9UBT2); assay: SUMOylation inhibitor hit validation, confirmation, SUMOylation inhibitor project, biochemical, AlphaScreen (AID 2018); format: functional
T2 sequence (Q9UBE0 whole entry): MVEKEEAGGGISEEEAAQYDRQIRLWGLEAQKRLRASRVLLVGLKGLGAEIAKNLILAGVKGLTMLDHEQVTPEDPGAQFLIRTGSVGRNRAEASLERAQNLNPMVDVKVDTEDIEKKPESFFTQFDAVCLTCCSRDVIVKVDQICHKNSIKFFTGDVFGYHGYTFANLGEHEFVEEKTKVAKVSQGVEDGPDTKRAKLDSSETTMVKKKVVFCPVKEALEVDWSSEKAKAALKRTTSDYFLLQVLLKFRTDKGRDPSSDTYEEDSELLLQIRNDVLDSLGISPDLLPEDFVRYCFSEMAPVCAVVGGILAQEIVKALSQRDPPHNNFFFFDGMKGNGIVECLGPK
T2 sequence (Q9UBT2 whole entry): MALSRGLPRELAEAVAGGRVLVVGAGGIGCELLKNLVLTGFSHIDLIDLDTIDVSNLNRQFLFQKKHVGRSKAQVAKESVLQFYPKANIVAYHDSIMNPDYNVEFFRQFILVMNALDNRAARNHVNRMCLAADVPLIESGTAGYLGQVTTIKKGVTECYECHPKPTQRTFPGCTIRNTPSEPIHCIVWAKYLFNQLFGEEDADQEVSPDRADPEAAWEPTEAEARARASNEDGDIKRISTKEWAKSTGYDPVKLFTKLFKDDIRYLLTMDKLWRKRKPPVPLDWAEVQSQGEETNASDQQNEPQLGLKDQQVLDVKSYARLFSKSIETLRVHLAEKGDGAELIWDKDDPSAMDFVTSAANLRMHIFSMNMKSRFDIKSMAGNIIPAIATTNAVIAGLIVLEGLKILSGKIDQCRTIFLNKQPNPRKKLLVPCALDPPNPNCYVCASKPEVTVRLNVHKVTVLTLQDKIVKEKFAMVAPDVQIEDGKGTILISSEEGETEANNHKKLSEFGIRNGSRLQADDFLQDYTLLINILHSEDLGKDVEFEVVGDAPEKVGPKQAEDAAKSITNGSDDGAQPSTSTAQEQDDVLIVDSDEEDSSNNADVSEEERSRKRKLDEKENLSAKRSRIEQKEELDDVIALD

SUMO-activating enzyme [6] = molecular target: T2, SUMO-activating enzyme; assay: inhibitors of in vitro SUMOylation cascade, primary screen, biochemical, HTRF, uHTS (AID 2006); format: protein-complex assay
[7] = molecular target: Induced myeloid leukemia cell differentiation protein Mcl-1 (Homo sapiens, UniProt Q07820); assay: MCL1-BIM BH3 interaction inhibitors, dose response, biochemical, fluorescence polarization, BIM-BH3 peptide, 1536-well (AID 2217)
Sequence of Induced myeloid leukemia cell differentiation protein Mcl-1 (Q07820 whole entry): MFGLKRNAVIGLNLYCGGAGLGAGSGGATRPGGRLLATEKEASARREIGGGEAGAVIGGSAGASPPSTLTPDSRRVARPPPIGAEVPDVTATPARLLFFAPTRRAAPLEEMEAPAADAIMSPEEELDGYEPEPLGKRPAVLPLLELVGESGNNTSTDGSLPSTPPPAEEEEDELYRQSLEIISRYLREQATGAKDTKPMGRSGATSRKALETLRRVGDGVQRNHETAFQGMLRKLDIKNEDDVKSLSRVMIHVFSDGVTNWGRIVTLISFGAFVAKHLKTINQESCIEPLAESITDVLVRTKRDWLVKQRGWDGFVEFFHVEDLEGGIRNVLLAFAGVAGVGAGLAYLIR

Bcl-2-like protein 1 = Bcl-2-like protein 1 (Homo sapiens, UniProt Q07817); assay: BCL-XL inhibitors, dose response, selectivity assay for MCL1 inhibitor project, biochemical, fluorescence polarization, 1536-well (AID 2218)
Sequence of Bcl-2-like protein 1 (Q07817 whole entry): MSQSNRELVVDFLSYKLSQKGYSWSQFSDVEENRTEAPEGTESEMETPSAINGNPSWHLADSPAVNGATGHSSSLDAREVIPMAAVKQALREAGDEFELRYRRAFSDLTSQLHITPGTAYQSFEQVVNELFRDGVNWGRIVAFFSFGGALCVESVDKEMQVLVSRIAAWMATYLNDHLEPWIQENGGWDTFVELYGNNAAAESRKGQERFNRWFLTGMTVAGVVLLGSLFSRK

Estrogen receptor beta [8] = molecular target: T3, Estrogen receptor beta (Homo sapiens, UniProt Q92731);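 also: recombinant ER-beta bound to coactivator SRC1 peptide in presence of estradiol agonist; inhibitors block coactivator peptide binding and lower the FRET signal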
T3 sequence (Q92731 whole entry): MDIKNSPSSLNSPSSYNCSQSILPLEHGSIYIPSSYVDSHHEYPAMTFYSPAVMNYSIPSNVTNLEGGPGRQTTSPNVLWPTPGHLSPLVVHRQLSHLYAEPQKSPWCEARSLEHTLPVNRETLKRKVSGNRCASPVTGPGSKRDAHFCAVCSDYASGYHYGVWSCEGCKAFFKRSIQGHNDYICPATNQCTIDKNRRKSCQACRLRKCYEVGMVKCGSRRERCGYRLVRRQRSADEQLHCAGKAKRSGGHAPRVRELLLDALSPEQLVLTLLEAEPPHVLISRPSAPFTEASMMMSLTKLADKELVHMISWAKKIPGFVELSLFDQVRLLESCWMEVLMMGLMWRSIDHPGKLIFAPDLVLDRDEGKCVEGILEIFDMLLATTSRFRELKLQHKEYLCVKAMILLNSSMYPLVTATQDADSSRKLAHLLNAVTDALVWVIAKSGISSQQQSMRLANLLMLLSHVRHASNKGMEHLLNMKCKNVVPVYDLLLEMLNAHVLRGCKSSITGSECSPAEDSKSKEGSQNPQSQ

Estrogen receptor beta [9] = molecular target: T3, Estrogen receptor beta; assay: ERβ–SRC-3 coactivator interaction inhibitors, confirmation, orthogonal assay, biochemical, ELISA, streptavidin-HRP readout (AID 1060)
[10] = molecular target: T4, Carboxy-terminal domain RNA polymerase II polypeptide A small phosphatase 1 (Homo sapiens, UniProt Q9GZU7); assay: inhibitors of CTDSP1, concentration-response testing, biochemical assay, absorbance-based, actives from ultra-high-throughput screening (AID 540297); format: functional
T4 sequence (Q9GZU7 whole entry): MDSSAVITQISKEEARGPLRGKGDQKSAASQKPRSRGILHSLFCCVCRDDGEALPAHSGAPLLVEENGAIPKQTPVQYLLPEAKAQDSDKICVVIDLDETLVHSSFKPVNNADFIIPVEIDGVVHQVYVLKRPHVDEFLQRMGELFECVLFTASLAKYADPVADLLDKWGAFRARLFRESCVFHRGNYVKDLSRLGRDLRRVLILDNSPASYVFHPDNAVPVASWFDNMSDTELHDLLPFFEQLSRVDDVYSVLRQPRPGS

Sequence of Luciferin 4-monooxygenase (P08659 whole entry): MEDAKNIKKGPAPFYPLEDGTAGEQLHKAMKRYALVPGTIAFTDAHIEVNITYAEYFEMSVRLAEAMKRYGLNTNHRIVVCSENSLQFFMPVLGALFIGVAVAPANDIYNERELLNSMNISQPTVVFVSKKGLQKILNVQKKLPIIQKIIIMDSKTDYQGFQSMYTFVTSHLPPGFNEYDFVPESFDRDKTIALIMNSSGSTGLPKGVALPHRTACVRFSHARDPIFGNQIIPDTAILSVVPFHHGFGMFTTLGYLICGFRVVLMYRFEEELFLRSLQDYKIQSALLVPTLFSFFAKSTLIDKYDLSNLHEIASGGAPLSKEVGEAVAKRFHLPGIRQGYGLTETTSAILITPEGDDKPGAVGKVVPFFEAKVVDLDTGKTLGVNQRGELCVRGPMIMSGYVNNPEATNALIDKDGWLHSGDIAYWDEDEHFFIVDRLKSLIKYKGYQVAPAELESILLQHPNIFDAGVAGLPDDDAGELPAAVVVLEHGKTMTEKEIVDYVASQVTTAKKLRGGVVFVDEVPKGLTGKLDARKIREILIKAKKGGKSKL

What does the source list for `Clc1ccccc1OCc1nc(-c2ccccn2)no1`?
EC50 [1]: > 100 µM (not active); EC50 (HT-1080): > 50 µM (not active)

For `Cc1cc(C)c(S(=O)(=O)NCc2ccncc2)c(C)c1`, which IC50 (Galanin receptor type 2) is on record?
The IC50 was > 42 µM (not active).

And the IC50 [2]?
Its IC50 is > 80 µM (inactive).

And the IC50 [3]?
Its IC50 is 4.96 µM (active).

With `COc1ccc(N2CCN(c3nc(-c4cccs4)nc4ccccc34)CC2)cc1` as the compound, how does the IC50 [4] read?
Its IC50 is > 100 µM (active).

Which results are given for `Cc1ccc(C(=O)O)cc1-c1ccc(/C=C2\SC(=O)N(CC(=O)Nc3ccc4c(c3)OCO4)C2=O)o1`?
IC50 (SUMO-activating enzyme [5]): 4.35 µM (active); IC50 (SUMO-activating enzyme [6]): 10.3 µM (active); IC50 [7]: > 4.03 µM (active); IC50 (Bcl-2-like protein 1): > 109 µM (not active)

With `CCOC(=O)C1CCCN(C(=O)c2ccc(CS(=O)(=O)c3ccc(C)cc3)o2)C1` (stereo not drawn) as the compound, how does the IC50 (Estrogen receptor beta [8]) read?
Its IC50 is 13.7 µM (active).

And the IC50 (Estrogen receptor beta [9])?
Its IC50 is < 0.023 µM (not active).

What about the IC50 [10] of the same compound?
Its IC50 is 7.41 µM (active).
